According to patent US20100272717A1, “COMBINATIONS OF THERAPEUTIC AGENTS FOR TREATING CANCER” (NOVARTIS AG, priority 2007, published 2010):

Key:
Assay type in all cases: in vivo
[1] = system: MDA-MB-231 human breast adenocarcinoma xenograft; test: MDA-MB-231 human breast adenocarcinoma xenograft model, anti-tumor activity and tolerability; conditions: FIG. 1
Method: The effect of 5,6-dimethylxanthenone-4-acetic acid (Compound A) and 2-methyl-2-[4-(3-methyl-2-oxo-8-quinolin-3-yl-2,3-dihydro-imidazo[4,5-c]quinolin-1-yl)-phenyl]-propionitrile (Compound B) are evaluated for their anti-tumor activity using the MDA-MB-231 human breast adenocarcinoma xenograft model.
(§1) Interactions of combinations can be approximated using a combination index presented by Clark (Breast Cancer Research and Treatment 46, 255-278 (1997)). Taking A to be the activity (T/C) of compound A given alone; B to be the activity of compound B given alone; C the activity in the vehicle controls and AB to be the activity in the combination. A+B, the following formulae can be applied: synergy−(AB)/C<(A/C)×B/C), additive−(AB)/C=(A/C)×(B/C) and antagonistic−(AB)/C>(A/C)×(B/C). […] For example if, the triple combination of A+B+C is to be compared to the activity of the three agents given alone then taking D to be the activity of the vehicle controls the formula defining synergy would be (ABC)/D<(A/D)×(B/D)×(C/D).

[2] = system: A549 human non-small cell lung carcinoma xenograft; test: A549 human non-small cell lung carcinoma xenograft model, anti-tumor activity and tolerability
Source text: as §1
The effects of Compound A and Compound B are evaluated for their anti-tumor activity using the A549 human non-small cell lung carcinoma xenograft model.
The effects of 5,6-dimethylxanthenone-4-acetic acid (Compound A) and 4-amino-5-fluoro-3-[5-(4-methylpiperazin-1-yl)-1H-benzimidazol-2-yl]quinolin-2(1H)-one (Compound C) are evaluated for their anti-tumor activity using the A549 human non-small cell lung carcinoma xenograft model.
The effects of 5,6-dimethylxanthenone-4-acetic acid (Compound A) and everolimus are evaluated for their anti-tumor activity using the A549 human non-small cell lung carcinoma xenograft model.
The effect of 5,6-dimethylxanthenone-4-acetic acid (Compound A) and patupilone are evaluated for their anti-tumor activity using the A549 human non-small cell lung carcinoma xenograft model.

[3] = system: MCF-7 human breast adenocarcinoma xenograft; test: MCF-7 human breast adenocarcinoma xenograft model, anti-tumor activity and tolerability; conditions: for anti-tumor activity: FIG. 6 experiment, dose not stated
Source text: A+B, the following formulae can be applied: synergy−(AB)/C<(A/C)×B/C), additive−(AB)/C=(A/C)×(B/C) and antagonistic−(AB)/C>(A/C)×(B/C). […] For example if, the triple combination of A+B+C is to be compared to the activity of the three agents given alone then taking D to be the activity of the vehicle controls the formula defining synergy would be (ABC)/D<(A/D)×(B/D)×(C/D).

[4] = system: BT-474 human breast ductal carcinoma xenograft; test: BT-474 human breast ductal carcinoma xenograft model, anti-tumor activity and tolerability; conditions: FIG. 7; Compound A 20 mg/kg intravenously on days 1, 5 and 9
Source text: as §1

Compound: Cc1ccc2c(=O)c3cccc(CC(=O)O)c3oc2c1C [Compound A, 5,6-dimethylxanthenone-4-acetic acid]
- anti-tumor activity (tumor growth) ([1]; Compound A 18.6 mg/kg intravenously on days 1, 5 and 9): inhibition of tumor growth
- anti-tumor activity (tumor growth) ([2]; in vivo, ip, 15 mg/kg): inhibition of tumor growth
- anti-tumor activity (tumor growth) ([3]; FIG. 6, Compound A 20 mg/kg intravenously on days 1, 5 and 9): inhibition of tumor growth
- anti-tumor activity (tumor growth) [4]: inhibition of tumor growth

Compound: Cn1c(=O)n(-c2ccc(C(C)(C)C#N)cc2)c2c3cc(-c4cnc5ccccc5c4)ccc3ncc21 [Compound B, 2-methyl-2-[4-(3-methyl-2-oxo-8-quinolin-3-yl-2,3-dihydro-imidazo[4,5-c]quinolin-1-yl)-phenyl]-propionitrile]
- anti-tumor activity (tumor growth) ([1]; Compound B alone, several dose levels): dose-dependent inhibition of tumor growth
- anti-tumor activity ([2]; FIG. 2, Compound B alone, 20 mg/kg): shows activity

Compound: CN1CCN(c2ccc3[nH]c(-c4c(N)c5c(F)cccc5[nH]c4=O)nc3c2)CC1 [Compound C, 4-amino-5-fluoro-3-[5-(4-methylpiperazin-1-yl)-1H-benzimidazol-2-yl]quinolin-2(1H)-one]
- anti-tumor activity ([2]; in vivo): dose-dependent activity

Compound: CC(=O)O[C@@]12CO[C@@H]1C[C@H](O)[C@@]1(C)C(=O)[C@H](O)C3=C(C)[C@@H](OC(=O)[C@H](O)[C@@H](NC(=O)OC(C)(C)C)c4ccccc4)C[C@@](O)([C@@H](OC(=O)c4ccccc4)[C@H]21)C3(C)C [docetaxel, reference compound]
- anti-tumor activity [3]: inhibition of tumor growth

Compound: C/C(=C\c1csc(C)n1)[C@@H]1C[C@@H]2O[C@]2(C)CCC[C@H](C)[C@H](O)[C@@H](C)C(=O)C(C)(C)[C@@H](O)CC(=O)O1 [patupilone, (1S,3S,7S,10R,11S,12S,16R,1′E)-7,11-dihydroxy-8,8,10,12,16-pentamethyl-3-[methyl-2-(2-methylthiazol-4-yl)-vinyl]-4,17-dioxabicyclo[14.1.0]heptadecane-5,9-dione, reference compound]
- anti-tumor activity (tumor growth) ([2]; FIG. 5, patupilone 2 mg/kg intravenously): inhibition of tumor growth

Compound: bevacizumab: monoclonal antibody, marketed as AVASTIN
- anti-tumor activity [3]: no anti-tumor activity
